pIC50: −log10 of the molar value.

In this experiment the target is mouse SR-BI (Mus musculus, UniProt Q61009). Kind of experiment: [3H]cholesteryl ester uptake assay. Format: cell-based.
Chain of mouse SR-BI (Q61009 whole entry): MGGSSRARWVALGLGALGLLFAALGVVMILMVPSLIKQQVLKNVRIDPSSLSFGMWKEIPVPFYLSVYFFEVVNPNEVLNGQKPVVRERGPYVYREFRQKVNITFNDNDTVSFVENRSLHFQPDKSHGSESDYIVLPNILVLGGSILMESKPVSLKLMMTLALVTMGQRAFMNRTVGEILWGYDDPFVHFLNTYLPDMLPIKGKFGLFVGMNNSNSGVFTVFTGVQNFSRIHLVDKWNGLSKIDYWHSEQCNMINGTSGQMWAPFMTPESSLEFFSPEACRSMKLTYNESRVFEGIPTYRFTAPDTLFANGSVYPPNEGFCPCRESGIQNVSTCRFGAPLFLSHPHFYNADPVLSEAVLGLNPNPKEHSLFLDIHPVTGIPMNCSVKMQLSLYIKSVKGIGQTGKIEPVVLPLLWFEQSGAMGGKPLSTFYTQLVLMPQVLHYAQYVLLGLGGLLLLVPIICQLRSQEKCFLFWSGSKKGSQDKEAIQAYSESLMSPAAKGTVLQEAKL

As a reminder, the pIC50 is −log10 of the IC50, conventionally taken in molar units. Read a low pIC50 as a large IC50. Take `COc1c(NC(=O)C(=O)c2ccc(OCCN3CCOCC3)c3ccccc23)cc(C(C)(C)C)cc1NS(C)(=O)=O` [ITX-5061]: the pIC50 was 6.03.

For the origin of these results see PMC4599563 (ACS Medicinal Chemistry Letters, 2015).
